Laboratory results taken from patent US20120253007A1 (The Government of the United States of America, as …, priority 2011, published 2012).

Test system: leukocyte migration (chemotaxis) stimulated by f-MLP
Assay: leukocyte chemotaxis assay: leukocyte migration stimulated by f-MLP
Conditions: concentration not given

For cyclosporin H, the “activity in studies involving leukocyte chemotaxis induced by f-MLP (result in words)” value was “functionally active” and the “activity in studies involving leukocyte chemotaxis induced by f-MLP (result in words)” value (listed as purified cyclosporin H) was “active”.
